From US20140378513A1, “USE OF FUNGICIDES IN LIQUID SYSTEMS” (priority 2011, published 2014)

Assays:
Scenedesmus dimorphus = assay: Algae sensitivity screen, 96 well, growth rate by A750 over 8 days; type: cell-based
Procedure: (§1) The total volume per well is 200 μl. Each chemical is tested in triplicate.

microalgae = assay: Ranges of microalgae toxicity (serial dilution of fungicide in growing culture); details: range in which fungicide begins to show growth effects on microalgae
Source text: The present disclosure provides for the introduction of fungicides at an effective concentration. Effective concentrations may be determined according to manufacturer's instructions or may be determined empirically. An effective concentration of a fungicide is not toxic to the microalgae being cultured in the liquid system. Methods to determine toxicity are known in the art and include serial dilutions of a test fungicide in a growing liquid culture of microalgae. One of skill in the art would understand that different microalgae may have different ranges of toxicity that may be determined by growth of a microalga in the presence of a serial dilution of a fungicide.
Algae are screened for sensitivity to chemicals by preparing 180 ml of a log phase culture. The log phase culture is transferred into a 96 well microtiter plate at an absorbance at 750 nm (OD750 or A750) of ˜0.2. Twenty microliters of media is provided into the top row as a negative control, the middle six rows receive a 20 microliter dilution, which is a 10 fold dilution of the chemical at each transfer, of the chemical across an appropriate concentration gradient, and the bottom row receives 20 microliter of the solvent used to solubilize the pesticide alone as a control. The total volume per well is 200 μl. Each chemical is tested in triplicate. The growth of the algae is tracked daily by measuring the A750. After 8 days, the growth rate of the algae is measured by fitting the growth curve to a log model and deriving the maximum growth rate (r). The impact of the chemical is calculated by comparing the r of the algae at various dilutions of the pesticide to the control.

[1] = system: Pest in infected Scenedesmus dimorphus culture; assay: Fungicide efficacy on pest control in infected microalgae culture; type: cell-based; details: for Scenedesmus dimorphus Efficacy confirmation: second trial; for Rating: rating scale of 0 to 3 by percent efficacy; for positive efficacy in a first trial confirmed in a second trial: Table 6; for Scenedesmus dimorphus efficacy: first trial
Source text: Failure to treat an infected culture results in the collapse and loss of the microalgae culture. […] Test fungicides are graded on a rating scale of 0 to 3 where a score of 0 represents an efficacy of between 0 and 25%, a score of 1 represents an efficacy of between 26 and 50%, a score of 2 represents an efficacy of between 51 and 75% and a score of 3 represents an efficacy of between 76 and 100%.

Scenedesmus species = assay: Algae sensitivity screen, 96 well, growth rate by A750 over 8 days; type: cell-based
Procedure: as §1

Desmid species = assay: as above; type: cell-based
Procedure: as §1

[2] = Tetradesmus dimorphus, read-out: Scenedesmus dimorphus efficacy
[3] = log phase culture, 10 fold dilutions
[4] = log phase culture, 10 fold dilutions, 8 days

N#Cc1sc2c(=O)c3ccccc3c(=O)c=2sc1C#N [dithianon, 5,10-dioxobenzo[g][1,4]benzodithiine-2,3-dicarbonitrile]
Scenedesmus dimorphus toxicity (Scenedesmus dimorphus; Scenedesmus dimorphus): 0.625-2.5 ppm
Ranges of Microalgae toxicity (microalgae): 0.625-2.5 ppm
Scenedesmus dimorphus Efficacy confirmation ([1]; @ 5 ppm): 52.2% @ 5 ppm
activity at 5 ppm [1, 2]: 37%
Rating [1]: 2 (a score of 2 represents an efficacy of between 51 and 75%)

CCNC(=O)NC(=O)/C(C#N)=N/OC [cymoxanil]
Rating [1]: 0 (a score of 0 represents an efficacy of between 0 and 25%)

CCC(C)c1cc([N+](=O)[O-])cc([N+](=O)[O-])c1OC(=O)C=C(C)C (stereo not shown) [binapacryl]
Scenedesmus dimorphus toxicity (Scenedesmus dimorphus; [3]): 0.125-0.5 ppm
Scenedesmus species toxicity (Scenedesmus species; [4]): 0.125-0.5 ppm
Ranges of Microalgae toxicity (microalgae): 0.125-0.5 ppm

CCCCCCCCCCCCNC(=N)N [dodine, dodecylguanidinium acetate]
Scenedesmus dimorphus Efficacy confirmation ([1]; @ 2 ppm): 100% @ 2 ppm
activity at 2 ppm [1, 2]: 93.9%
Rating [1]: 3 (a score of 3 represents an efficacy of between 76 and 100%)

N#CC(Br)(Br)C(N)=O [dibromocyanoacetamide, 2,2-dibromo-2-cyanoacetamide]
positive efficacy in a first trial confirmed in a second trial [1]: not confirmed
activity at 5 ppm [1, 2]: 35.4%
Rating [1]: 0 (a score of 0 represents an efficacy of between 0 and 25%)

COCC(=O)N(c1c(C)cccc1C)C(C)C(=O)OC (stereo not shown) [metalaxyl]
Rating [1]: 0 (a score of 0 represents an efficacy of between 0 and 25%)

Cc1ccc(N(SC(F)(Cl)Cl)S(=O)(=O)N(C)C)cc1 [tolylfluanid, N-[dichloro(fluoro)methyl]sulfanyl-N-(dimethylsulfamoyl)-4-methylaniline]
Scenedesmus dimorphus toxicity (Scenedesmus dimorphus; Scenedesmus dimorphus): 1.56-6.25 ppm
Desmid species toxicity (Desmid species; Desmid species): 6.25-25.0 ppm
Scenedesmus species toxicity (Scenedesmus species; Scenedesmus species, 8 days): 6.25-25.0 ppm
Ranges of Microalgae toxicity (microalgae): 1.56-25.0 ppm
Scenedesmus dimorphus efficacy ([1]; 5 ppm, result in words): 5 ppm Delayed Crash
Rating [1]: 0 (a score of 0 represents an efficacy of between 0 and 25%)

CC(Cc1ccc(C(C)(C)C)cc1)CN1CCCCC1 (stereo not shown) [fenpropidin, 1-[3-(4-tert-butylphenyl)-2-methylpropyl]piperidine]
Scenedesmus dimorphus toxicity (Scenedesmus dimorphus; [3]): 0.00195-0.0078 ppm
Desmid species toxicity (Desmid species; [3]): 0.031-0.125 ppm
Scenedesmus species toxicity (Scenedesmus species; cell marked (ppb)): 0.488-1.953 ppb
Ranges of Microalgae toxicity (microalgae): 0.00195-1.953 ppm
positive efficacy in a first trial confirmed in a second trial [1]: not confirmed
activity at 0.8 ppm [1, 2]: 18.5%
Rating [1]: 0 (a score of 0 represents an efficacy of between 0 and 25%)

CC1=C(C(=O)Nc2ccccc2)SCCO1 [carboxine, 6-methyl-N-phenyl-2,3-dihydro-1,4-oxathiine-5-carboxamide]
Scenedesmus dimorphus toxicity (Scenedesmus dimorphus; [3]): 0-0.244 ppm
Desmid species toxicity (Desmid species; [3]): 0.977-3.906 ppm
Scenedesmus species toxicity (Scenedesmus species; [4]): 0.244-0.977 ppm
Ranges of Microalgae toxicity (microalgae): 0.977-3.906 ppm
positive efficacy in a first trial confirmed in a second trial [1]: not confirmed
activity at 5 ppm [1, 2]: 24.6%
Rating [1]: 0 (a score of 0 represents an efficacy of between 0 and 25%)

Cc1cc(C2CC2)nc(Nc2ccccc2)n1 [cyprodinil, 4-Cyclopropyl-6-methyl-N-phenylpyrimidin-2-amine]
activity at 2 ppm [1, 2]: 8.1%
Rating [1]: 0 (a score of 0 represents an efficacy of between 0 and 25%)

CO/N=C(/C(=O)OC)c1ccccc1COc1ccccc1C [kresoxim-methyl]
Rating [1]: 0 (a score of 0 represents an efficacy of between 0 and 25%)

CC1(C(=O)Nc2ccc(O)c(Cl)c2Cl)CCCCC1 [fenhexamid]
Desmid species toxicity (Desmid species; Desmid species): 15.63-62.5 ppm
Ranges of Microalgae toxicity (microalgae): 15.63-62.5 ppm
Rating [1]: 0 (a score of 0 represents an efficacy of between 0 and 25%)

CON=C(Cc1cccnc1)c1ccc(Cl)cc1Cl [pyrifenox]
Scenedesmus dimorphus toxicity (Scenedesmus dimorphus; [3]): 0.039-0.156 ppm
Desmid species toxicity (Desmid species; [3]): 0.004-0.0156 ppm
Scenedesmus species toxicity (Scenedesmus species; [4]): 0.039-0.156 ppm
Ranges of Microalgae toxicity (microalgae): 0.004-0.156 ppm
Scenedesmus dimorphus efficacy ([1]; result as symbol): (+/−)
Rating [1]: 0 (a score of 0 represents an efficacy of between 0 and 25%)

CNC(=O)/C(=N/OC)c1ccccc1COc1cc(C)ccc1C [dimoxystrobin]
Scenedesmus dimorphus toxicity (Scenedesmus dimorphus; [3]): 0.0156-0.0625 ppm
Desmid species toxicity (Desmid species; [3]): 0.004-0.0156 ppm
Scenedesmus species toxicity (Scenedesmus species; [4]): 0.0156-0.0625 ppm
Ranges of Microalgae toxicity (microalgae): 0.004-0.0625 ppm
Rating [1]: 0 (a score of 0 represents an efficacy of between 0 and 25%)

CCO[PH](=O)O [fosetyl-aluminum (100 mg), fosetyl-aluminum]
Rating [1]: 0 (a score of 0 represents an efficacy of between 0 and 25%)

CC(C)(C)C(O)(CCc1ccc(Cl)cc1)Cn1cncn1 (stereo not shown) [tebuconazole]
Rating [1]: 0 (a score of 0 represents an efficacy of between 0 and 25%)

CCC(C)(NC(=O)c1cc(Cl)c(C)c(Cl)c1)C(=O)CCl (stereo not shown) [zoxamide]
Scenedesmus dimorphus toxicity (Scenedesmus dimorphus; Scenedesmus dimorphus): 0.0625-0.250 ppm
Desmid species toxicity (Desmid species; Desmid species): 0.0156-0.0625 ppm
Scenedesmus species toxicity (Scenedesmus species; Scenedesmus species, 8 days): 0.0156-0.0625 ppm
Ranges of Microalgae toxicity (microalgae): 0.0156-0.250 ppm
Rating [1]: 0 (a score of 0 represents an efficacy of between 0 and 25%)

CC1CN(C2CCCCCCCCCCC2)CC(C)O1 (stereo not shown) [dodemorph]
Scenedesmus dimorphus toxicity (Scenedesmus dimorphus; [3]): 0.195-0.781 ppm
Scenedesmus species toxicity (Scenedesmus species; [4]): 0.195-0.781 ppm
Ranges of Microalgae toxicity (microalgae): 0.195-0.781 ppm
Rating [1]: 0 (a score of 0 represents an efficacy of between 0 and 25%)

OC(c1ccc(Cl)cc1)(c1cncnc1)c1ccccc1Cl (stereo not shown) [fenarimol, (2-chlorophenyl)-(4-chlorophenyl)-pyrimidin-5-ylmethanol]
Scenedesmus dimorphus toxicity (Scenedesmus dimorphus; [3]): 0.0489-0.195 ppm
Scenedesmus species toxicity (Scenedesmus species; [4]): 0.0489-0.195 ppm
Ranges of Microalgae toxicity (microalgae): 0.0489-0.195 ppm
positive efficacy in a first trial confirmed in a second trial [1]: not confirmed
activity at 2 ppm [1, 2]: 31%
Rating [1]: 0 (a score of 0 represents an efficacy of between 0 and 25%)

CCCC1COC(Cn2cncn2)(c2ccc(Cl)cc2Cl)O1 (stereo not shown) [propiconazole, 1-[[2-(2,4-dichlorophenyl)-4-propyl-1,3-dioxolan-2-yl]methyl]-1,2,4-triazole]
Scenedesmus dimorphus Efficacy confirmation ([1]; @ 0.8 ppm): 18.6% @ 0.8 ppm
activity at 0.32 ppm [1, 2]: 30.6%
Rating [1]: 0 (a score of 0 represents an efficacy of between 0 and 25%)

O=CNC(N1CCN(C(NC=O)C(Cl)(Cl)Cl)CC1)C(Cl)(Cl)Cl (stereo not shown) [triforin]
Rating [1]: 0 (a score of 0 represents an efficacy of between 0 and 25%)

dinocap
Scenedesmus dimorphus toxicity (Scenedesmus dimorphus; [3]): 0.0039-0.0156 ppm
Scenedesmus species toxicity (Scenedesmus species; [4]): 0.0156-0.0625 ppm
Ranges of Microalgae toxicity (microalgae): 0.0039-0.0625 ppm
Rating [1]: 0 (a score of 0 represents an efficacy of between 0 and 25%)

O=[N+]([O-])C(Br)(CO)CO [bronopol, 2-bromo-2-nitropropane-1,3-diol]
activity at 5 ppm [1, 2]: 14.3%
Rating [1]: 0 (a score of 0 represents an efficacy of between 0 and 25%)

CON=C(C(=O)OC)c1ccccc1CON=C(C)c1cccc(C(F)(F)F)c1 [trifloxystrobin]
Rating [1]: 0 (a score of 0 represents an efficacy of between 0 and 25%)

CSC(=O)c1cccc2nnsc12 [benzo(1,2,3)thiadiazole-7-carbothioic acid-5-methyl ester]
Scenedesmus dimorphus efficacy ([1]; @ 0.8 ppm, percent of growth of treated culture compared to uninfected control growth rate): 17.5% @ 0.8 ppm

O=C(Nc1ccccc1-c1ccc(Cl)cc1)c1cccnc1Cl [boscalid]
Rating [1]: 0 (a score of 0 represents an efficacy of between 0 and 25%)

COC(=O)NC(=S)Nc1ccccc1NC(=S)NC(=O)OC [thiophanate-methyl, methyl N-[[2-(methoxycarbonylcarbamothioylamino)phenyl]carbamothioyl]carbamate]
activity at 5 ppm [1, 2]: 9.6%
Rating [1]: 0 (a score of 0 represents an efficacy of between 0 and 25%)

O=C(Nc1ccccc1)c1ccccc1I [benodanil, 2-Iodo-N-phenylbenzamide]
Scenedesmus dimorphus toxicity (Scenedesmus dimorphus; [3]): 0.3125-1.25 ppm
Scenedesmus species toxicity (Scenedesmus species; [4]): 0.3125-1.25 ppm
Ranges of Microalgae toxicity (microalgae): 0.3125-1.25 ppm
positive efficacy in a first trial confirmed in a second trial [1]: not confirmed
activity at 5 ppm [1, 2]: 38.7%
Rating [1]: 0 (a score of 0 represents an efficacy of between 0 and 25%)

OC(Cc1ccccc1Cl)(Cn1nc[nH]c1=S)C1(Cl)CC1 (stereo not shown) [prothioconazole]
Rating [1]: 0 (a score of 0 represents an efficacy of between 0 and 25%)

mancozeb
Rating [1]: 0 (a score of 0 represents an efficacy of between 0 and 25%)

CO/C=C(/C(=O)OC)c1ccccc1Oc1cc(Oc2ccccc2C#N)ncn1 [azoxystrobin]
Rating [1]: 0 (a score of 0 represents an efficacy of between 0 and 25%)
